Experimental data as given in publication PMC12297039, “Design, Synthesis, and Evaluation of Cytotoxic Effects of Functional Fatty Acid Derivatives as Potential Antineoplastic Agents for Breast Cancer” (Iranian Journal of Pharmaceutical Research : IJPR, 2025).
Like-named read-outs stand apart in the source and are kept apart here.

Assays:
MCF-7 cells [1] = test: MTT cytotoxicity assay on breast adenocarcinoma (MCF-7) cells; type: cell-based, human; settings: for EC50: read-out: MCF-7 EC50 (μM) ± SE; for Selectivity Index (SI), MCF-7: ratio of EC50 against fibroblasts to EC50 against MCF-7 cells
Method: (§1) The cytotoxic effects of DHA and LA derivatives against the breast cancer cell line (MCF-7) were assessed, with results compared to human dermal fibroblasts (HDFs) as a normal cell line. Both cell lines were provided by the Pasteur Institute of Iran (IPI). The cells were cultured in RPMI medium containing 10% fetal bovine serum (FBS) and 1% antibiotic solution (comprising 10,000 units of penicillin and 10 mg streptomycin in 0.9% NaCl). The cultures were incubated at 37°C with 5% CO2.
(§2) The MTT assay was used as a standard method for evaluating the inhibitory effect of compounds. This colorimetric assay is based on the conversion of yellow MTT (3-[4,5-dimethylthiazol-2-yl]-2,5-diphenyltetrazolium bromide) to purple formazan crystals via enzymatic reduction by NAD(P)H-dependent oxidoreductase enzymes in metabolically active cells ([35]). According to a previously reported method, after 24 hours of incubation of cells (15,000 cells per well), six different concentrations of D1-D8 (6.25 to 200 μM) and L1-L8 (3.125 to 100 μM) were added to the wells, with each concentration performed in triplicate. After 48 hours of incubation, the culture medium was completely removed from the wells. MTT solution, prepared at a concentration of 0.5 mg/mL in phosphate-buffered saline (PBS), was added (100 µL per well) and incubated for 4 hours to allow metabolically active cells to reduce the MTT to insoluble formazan crystals. Subsequently, 100 µL of solubilizing solvent containing 16% sodium dodecyl sulfate (SDS) was added to each well, followed by an additional 2 hours of incubation ([36]). Cell viability was determined using a Cell Imaging Multi-Mode Microplate Reader (Biotek, Cytation 3, USA), measuring absorbance at 570 nm ([37], [38]).

MCF-7 cells [2] = test: Annexin V-FITC/PI flow cytometry, apoptosis and necrosis; type: cell-based, human; settings: MCF-7, annexin V-FITC/PI staining, ½x, x, 2x EC50
Method: Apoptosis and necrosis were measured using a dead cell apoptosis kit with annexin V-FITC and propidium iodide (PI) (ApoFlowExFITC, Exbio, Czech Republic) according to the manufacturer’s protocol. The MCF-7 cells were cultured as described in the cell culture section (section 3.3.1). […] Cells were collected through trypsinization, rinsed twice with PBS, and then resuspended in 500 μL of binding buffer. The cell suspensions were subsequently incubated with 5 μL of annexin V-FITC and 5 μL of PI for 10 minutes at room temperature in a dark environment. The cells were then assessed immediately using flow cytometry, and the data were analyzed using FlowJo version 7.6.5 (Tree Star, Inc., Ashland, USA).
A distinguishing characteristic of cells undergoing apoptosis is the translocation of phosphatidylserine from the inner to the outer layers of the plasma membrane, which can be identified by annexin V in this assay. The PI identifies necrotic cells with compromised plasma membranes ([39]-[44]).

[3] = test system: human dermal fibroblasts (HDFs); test: MTT cytotoxicity assay on normal human dermal fibroblasts (HDFs); type: cell-based; settings: read-out: HDF EC50 (μM) ± SE
Method: as §1, §2

MCF-7 breast cancer cell = test system: MCF-7 breast cancer cell; parameters: method as in PMID 31652764; settings: MCF-7, MTT assay, 150 μM DHA; cited from earlier work
[4] = Homo sapiens, MCF7, MTT, 48 h incubation, MCF-7
[5] = Fibroblast, MTT, 48 h incubation, normal human dermal fibroblasts

Molecule	EC50 (MCF-7 cells [1]; [4]) [µM]	EC50 [3, 5] [µM]	also measured
CC/C=C\C/C=C\C/C=C\C/C=C\C/C=C\C/C=C\CCC(=O)NCCc1ccccc1 [Compound D5, (4Z,7Z,10Z,13Z,16Z,19Z)-N-phenethyldocosa-4,7,10,13,16,19-hexaenamide]	≥ 100		
4-((4Z,7Z,10Z,13Z,16Z,19Z)-docosa-4,7,10,13,16,19-hexaen-1-yl)morpholine [Compound D3]			EC50 (MCF-7 cells [1]; MTT, 48 h incubation, MCF-7): 16 ± 2.89 µM; mode of cell death (MCF-7 cells [2]): predominantly induced apoptosis rather than necrosis; EC50 ([3]; MTT, 48 h incubation, normal human dermal fibroblasts): > 100 µM
CCCCC/C=C\C/C=C\CCCCCCCC(=O)NCCO [Compound L1, (9Z,12Z)-N-(2-hydroxyethyl) octadeca-9,12-dienamide]	≥ 100		
CCCCC/C=C\C/C=C\CCCCCCCC(=O)Nc1ccc(O)cc1 [Compound L4, (9Z,12Z)-N-(4-hydroxyphenyl) octadeca-9,12-dienamide]	52.4 ± 6.79	≥ 100	Selectivity Index (SI), MCF-7 (MCF-7 cells [1]): 3.53
CCCCC/C=C\C/C=C\CCCCCCCC(=O)N1CCOCC1 [Compound L3, (9Z,12Z)-1-morpholinooctadeca-9,12-dien-1-one]	24.6 ± 1.81	≥ 100	Selectivity Index (SI), MCF-7 (MCF-7 cells [1]): 6.88; mode of cell death (MCF-7 cells [2]): predominantly induced apoptosis rather than necrosis
CCCCC/C=C\C/C=C\CCCCCCCC(=O)NCC(O)CO (stereo not shown) [Compound L7, (9Z,12Z)-N-(2,3-dihydroxypropyl) octadeca-9,12-dienamide]	19.2 ± 2.93	64.8 ± 5.72	Selectivity Index (SI), MCF-7 (MCF-7 cells [1]): 3.37; mode of cell death (MCF-7 cells [2]): predominantly induced apoptosis rather than necrosis
N.N.[Cl][Pt][Cl] [cisplatin, reference compound]			EC50 (MCF-7 cells [1]; MTT, 48 h incubation, MCF-7): 0.85 µM; Selectivity Index (SI), MCF-7 (MCF-7 cells [1]): 1.18
CC/C=C\C/C=C\C/C=C\C/C=C\C/C=C\C/C=C\CCC(=O)NCCO [Compound D1, (4Z,7Z,10Z,13Z,16Z,19Z)-N-(2-hydroxyethyl) docosa-4,7,10,13,16,19-hexaenamide]			EC50 (MCF-7 cells [1]; Homo sapiens, MCF7, 48 h): ≥ 100 µM; EC50 ([3]; Homo sapiens, Fibroblast, 48 h): ≥ 100 µM
CCCCC/C=C\C/C=C\CCCCCCCC(=O)N(CCO)CCO [Compound L2, (9Z,12Z)-N,N-bis(2-hydroxyethyl) octadeca-9,12-dienamide]	≥ 100		
CC/C=C\C/C=C\C/C=C\C/C=C\C/C=C\C/C=C\CCC(=O)Nc1ccc(O)cc1 [Compound D4, (4Z,7Z,10Z,13Z,16Z,19Z)-N-(4-hydroxyphenyl)docosa-4,7,10,13,16,19-hexaenamide]	74.3 ± 1.41	> 100	
CC/C=C\C/C=C\C/C=C\C/C=C\C/C=C\C/C=C\CCC(=O)N(CCO)CCO [Compound D2, (4Z,7Z,10Z,13Z,16Z,19Z)-N,N-bis(2-hydroxyethyl)docosa-4,7,10,13,16,19-hexaenamide]	≥ 100	> 100	
CC/C=C\C/C=C\C/C=C\C/C=C\C/C=C\C/C=C\CCC(=O)NCC(O)CO (stereo not shown) [Compound D7, (4Z,7Z,10Z,13Z,16Z,19Z)-N-(2,3-dihydroxypropyl) docosa-4,7,10,13,16,19-hexaenamide]	98.6 ± 1.19	> 100	
CC/C=C\C/C=C\C/C=C\C/C=C\C/C=C\C/C=C\CCC(=O)N1CCN(C)CC1 [Compound D6, (4Z,7Z,10Z,13Z,16Z,19Z)-1-(4-methylpiperazin-1-yl) docosa-4,7,10,13,16,19-hexaen-1-one]	≥ 100		
CC/C=C\C/C=C\C/C=C\C/C=C\C/C=C\C/C=C\CCC(=O)O [DHA, docosahexaenoic acid]			cell viability (MCF-7 breast cancer cell): significantly reduced
CC/C=C\C/C=C\C/C=C\C/C=C\C/C=C\C/C=C\CCC(=O)NCCN [Compound D8, (4Z,7Z,10Z,13Z,16Z,19Z)-N-(2-aminoethyl) docosa-4,7,10,13,16,19-hexaenamide]	86 ± 5.41	> 100	
